The text below walks through data of US6544985B2, “Dihydro-benzo [b][1,4]diazepin-2-one derivatives” (Hoffman-La Roche Inc., priority 2001, dated 2003).

For `CC(C)CNc1cc2c(cc1Cl)NC(=O)CC(c1cccc(-n3ccnn3)c1)=N2` [Example 179, 8-Chloro-7-(isobutyl-amino)-4-(3-[1,2,3]triazol-1-yl-phenyl)-1,3-dihydro-benzo[b][1,4]diazepin-2-one], the melting point (as a rule, the temperature, or range, at which the solid turns liquid) is 249 °C.

The compound `CC(C)N(C)c1cc2c(cc1C(F)(F)F)NC(=O)CC(c1cccc(-n3nncc3CN3CCCC3)c1)=N2` [Example 151, 7-(Isopropyl-methyl-amino)-4-[3-(5-pyrrolidin-1-ylmethyl-[1,2,3]triazol-1-yl)-phenyl]-8-trifluoromethyl-1,3-dihydro-benzo[b][1,4]diazepin-2-one] registered a melting point of 175 °C. Turning to `CN(C)c1cc2c(cc1C(F)(F)F)NC(=O)CC(c1cccc(-c3nc(CO)cs3)c1)=N2` [Example 201, 7-Dimethylamino-4-[3-(4-hydroxymethyl-thiazol-2-yl)-phenyl]-8-trifluoromethyl-1,3-dihydro-benzo[b][1,4]diazepin-2-one], the melting point was 198 to 199 °C.

`CN(C)c1cc2c(cc1C(F)(F)F)NC(=O)CC(c1cccc(-c3cc(CN4CCCC4)no3)c1)=N2` [Example 53, 7-Dimethylamino-4-[3-(3-pyrrolidin-1-ylmethyl-isoxazol-5-yl)-phenyl]-8-trifluoromethyl-1,3-dihydro-benzo[b][1,4]diazepin-2-one]: the melting point turned out to be 160 °C. `CN(C)c1cc2c(cc1Cl)NC(=O)CC(c1cccc(-c3csc(CO)n3)c1)=N2` [Example 193, 8-Chloro-7-dimethylamino-4-[3-(2-hydroxymethyl-thiazol-4-yl)-phenyl]-1,3-dihydro-benzo[b][1,4]diazepin-2-one]: the melting point is 176 to 178 °C. For `Cc1cc(-c2cccc(C3=Nc4cc(N(C)C(C)C)c(C(F)(F)F)cc4NC(=O)C3)c2)on1` [Example 120, 7-(Isopropyl-methyl-amino)-4-[3-(3-methyl-isoxazol-5-yl)-phenyl]-8-trifluoromethyl-1,3-dihydro-benzo[b][1,4]diazepin-2-one] the value was 199 °C; for `Cc1nc(-c2cccc(C3=Nc4cc(N(C)C)c(C(F)(F)F)cc4NC(=O)C3)c2)c(CO)s1` [Example 218, 7-Dimethylamino-4-[3-(5-hydroxymethyl-2-methyl-thiazol-4-yl)-phenyl]-8-trifluoromethyl-1,3-dihydro-benzo[b][1,4]diazepin-2-one], 226 to 227 °C. As for `COCCN(C)c1cc2c(cc1Cl)NC(=O)CC(c1ccnc(-c3cc(C)no3)c1)=N2` [Example 12, 8-Chloro-7-[(2-methoxy-ethyl)-methyl-amino]-4-[2-(3-methyl-isoxazol-5-yl)-pyridin-4-yl]-1,3-dihydro-benzo[b][1,4]diazepin-2-one], the melting point was 213 °C. Compound `CCCN(C)c1cc2c(cc1Cl)NC(=O)CC(c1cccc(-c3coc(C)n3)c1)=N2` [Example 198, 8-Chloro-4-[3-(2-methyl-oxazol-4-yl)-phenyl]-7-(methyl-propyl-amino)-1,3-dihydro-benzo[b][1,4]diazepin-2-one] returned a melting point of 163 to 164 °C.

`CC(C)N(C)c1cc2c(cc1Cl)NC(=O)CC(c1cccc(-n3nncc3CNC3CC3)c1)=N2` [Example 154, 8-Chloro-4-[3-(5-cyclopropylaminomethyl-[1,2,3]triazol-1-yl)-phenyl]-7-(isopropyl-methyl-amino)-1,3-dihydro-benzo[b][1,4]diazepin-2-one] displayed a melting point of 144 °C. In turn, `Cc1cc(-c2cccc(C3=Nc4cc(N5CCCCC5)c(C#N)cc4NC(=O)C3)c2)on1` [Example 112, 2-[3-(3-Methyl-isoxazol-5-yl)-phenyl]-4-oxo-8-piperidin-1-yl-4,5-dihydro-3H-benzo[b][1,4]diazepine-7-carbonitrile] came in with a melting point of 246 °C. In turn, `CN(CC1CC1)c1cc2c(cc1C(F)(F)F)NC(=O)CC(c1cccc(-n3nncc3CNC3CC3)c1)=N2` [Example 80, 4-[3-(5-Cyclopropylaminomethyl-[1,2,3]triazol-1-yl)-phenyl]-7-(cyclopropylmethyl-methyl-amino)-8-trifluoromethyl-1,3-dihydro-benzo[b][1,4]diazepin-2-one] displayed a melting point of 35 to 46 °C.

Consider `CN(C)c1cc2c(cc1C(F)(F)F)NC(=O)CC(c1cccc(-c3nnc(CCO)s3)c1)=N2` [Example 205, 7-Dimethylamino-4-{3-[5-(2-hydroxy-ethyl)-[1,3,4]thiadiazol-2-yl]-phenyl}-8-trifluoromethyl-1,3-dihydro-benzo[b][1,4]diazepin-2-one], for which the melting point was 234 to 237 °C. As for `Cc1cc2c(cc1N(C)CC(C)C)N=C(c1cccc(-n3nncc3CN3CCCC3)c1)CC(=O)N2` [Example 139, 7-(Isobutyl-methyl-amino)-8-methyl-4-[3-(5-pyrrolidin-1-ylmethyl-[1,2,3]triazol-1-yl)-phenyl]-1,3-dihydro-benzo[b][1,4]diazepin-2-one], the melting point came to 177 °C.

Regarding `CN(C)c1cc2c(cc1C(F)(F)F)NC(=O)CC(c1cccc(C#N)c1)=N2` [Example 75, 3-(8-Dimethylamino-4-oxo-7-trifluoromethyl-4,5-dihydro-3H-benzo[b][1,4]diazepin-2-yl)-benzonitrile], the melting point lay within 224 to 227 °C. As for `N#Cc1cc(C2=Nc3cc(N4CCCC4)c(F)cc3NC(=O)C2)ccn1` [Example 56, 4-(7-Fluoro-4-oxo-8-pyrrolidin-1-yl-4,5-dihydro-3H-benzo[b][1,4]diazepin-2-yl)-pyridine-2-carbonitrile], the melting point is 278 to 279 °C. With `CN(C)c1cc2c(cc1C(F)(F)F)NC(=O)CC(c1cccc(-n3cccn3)c1)=N2` [Example 64, 7-Dimethylamino-4-(3-pyrazol-1-yl-phenyl)-8-trifluoromethyl-1,3-dihydro-benzo[b][1,4]diazepin-2-one], the melting point worked out at 176 °C. As to `CC(C)N(C)Cc1cnnn1-c1cccc(C2=Nc3cc(N(C)C(C)C)c(Cl)cc3NC(=O)C2)c1` [Example 148, 8-Chloro-7-(isopropyl-methyl-amino)-4-(3-{5-[(isopropyl-methyl-amino)-methyl]-[1,2,3]triazol-1-yl}-phenyl)-1,3-dihydro-benzo[b][1,4]diazepin-2-one], the melting point came out at 180 °C. In turn, `CCCN(C)c1cc2c(cc1C)NC(=O)CC(c1cccc(-n3nncc3CO)c1)=N2` [Example 93, 4-[3-(5-Hydroxymethyl-[1,2,3]triazol-1-yl)-phenyl]-8-methyl-7-(methyl-propyl-amino)-1,3-dihydro-benzo[b][1,4]diazepin-2-one] yielded a melting point of 186 °C. Take `COCCN(C)c1cc2c(cc1Cl)NC(=O)CC(c1cccc(-n3nncc3CO)c1)=N2` [Example 13, 8-Chloro-4-[3-(5-hydroxymethyl-[1,2,3]triazol-1-yl)-phenyl]-7-[(2-methoxy-ethyl)-methyl-amino]-1,3-dihydro-benzo[b][1,4]diazepin-2-one]: the melting point stood at 185 °C.

For `CCCN(C)c1cc2c(cc1C#N)NC(=O)CC(c1cccc(-c3cc(C)no3)c1)=N2` [Example 106, 2-[3-(3-Methyl-isoxazol-5-yl)-phenyl]-8-(methyl-propyl-amino)-4-oxo-4,5-dihydro-3H-benzo[b][1,4]diazepine-7-carbonitrile], the melting point is 133 °C. In the case of `O=C1CC(c2cccc(-n3nncc3CO)c2)=Nc2cc(N3CCCCC3)c(Cl)cc2N1` [Example 50, 8-Chloro-4-[3-(5-hydroxymethyl-[1,2,3]triazol-1-yl)-phenyl]-7-piperidin-1-yl-1,3-dihydro-benzo[b][1,4]diazepin-2-one], the melting point was 246 °C (dec.). Regarding `CN(c1cc2c(cc1Cl)NC(=O)CC(c1ccnc(C#N)c1)=N2)C1CC1` [Example 34, 4-[7-Chloro-8-(cyclopropyl-methyl-amino)-4-oxo-4,5-dihydro-3H-benzo[b][1,4]diazepin-2-yl]-pyridine-2-carbonitrile], the melting point is 199 to 201 °C. `Cc1cc(-c2cccc(C3=Nc4cc(N(C)CC(C)C)c(C#N)cc4NC(=O)C3)c2)on1` [Example 110, 8-(Isobutyl-methyl-amino)-2-[3-(3-methyl-isoxazol-5-yl)-phenyl]-4-oxo-4,5-dihydro-3H-benzo[b][1,4]diazepine-7-carbonitrile]: the melting point was found to be 170 °C. Compound `CN(C)c1cc2c(cc1Cl)NC(=O)CC(c1cccc(C#N)c1)=N2` [Example 1, 3-(7-Chloro-8-dimethylamino-4-oxo-4,5-dihydro-3H-benzo[b][1,4]diazepin-2-yl)-benzonitrile] gave a melting point above 250 °C. For `CCCN(C)c1cc2c(cc1C(F)(F)F)NC(=O)CC(c1cccc(-n3nncc3CO)c1)=N2` [Example 115, 4-[3-(5-Hydroxymethyl-[1,2,3]triazol-1-yl)-phenyl]-7-(methyl-propyl-amino)-8-trifluoromethyl-1,3-dihydro-benzo[b][1,4]diazepin-2-one] the value was 230 °C; for `CN(C)Cc1cnnn1-c1cccc(C2=Nc3cc(N(C)C)c(Cl)cc3NC(=O)C2)c1` [Example 20, 8-Chloro-7-dimethylamino-4-[3-(5-dimethylaminomethyl-[1,2,3]triazol-1-yl)-phenyl]-1,3-dihydro-benzo[b][1,4]diazepin-2-one], 145 to 160 °C; for `CN(C)c1cc2c(cc1C(F)(F)F)NC(=O)CC(c1cccc(-n3ccnc3)c1)=N2` [Example 66, 7-Dimethylamino-4-(3-imidazol-1-yl-phenyl)-8-trifluoromethyl-1,3-dihydro-benzo[b][1,4]diazepin-2-one], 203 to 205 °C.

Turning to `CC(C)CN(C)c1cc2c(cc1C(F)(F)F)NC(=O)CC(c1cccc(-n3nncc3CN(C)C(C)C)c1)=N2` [Example 141, 7-(Isobutyl-methyl-amino)-4-(3-{5-[(isopropyl-methyl-amino)-methyl]-[1,2,3]triazol-1yl}-phenyl)-8-trifluoromethyl-1,3-dihydro-benzo[b][1,4]diazepin-2-one], the melting point was 157 °C. With `CN(C)c1cc2c(cc1F)NC(=O)CC(c1cccc(-c3cc(CO)no3)c1)=N2` [Example 44, 7-Dimethylamino-8-fluoro-4-[3-(3-hydroxymethyl-isoxazol-5-yl)-phenyl]-1,3-dihydro-benzo[b][1,4]diazepin-2-one], the melting point came to 187 °C.
